Measured values published in patent US20070128217A1 (priority 2003, published 2007).

Key:
[1] = test system: control sera (pooled serum of ten healthy LUMC hospital workers; commercial negative donor pooled serum from the Dutch bloodbank); format: binding, human; design: Binding of Control serum LUMC to linear peptides / Binding of Control serum Blood-bank to linear peptides / Binding of Control serum LUMC to looped peptides / Binding of Control Serum Blood-Bank to Looped peptides / Binding of Control serum LUMC to linear peptides of the protein M of SARS-CoV Urbani / Binding of Control serum Blood-bank to linear peptides of the protein M of SARS-CoV Urbani / Binding of Control serum LUMC to looped peptides of the protein M of SARS-CoV Urbani / Binding of Control Serum Blood-Bank to Looped peptides of the protein M of SARS-CoV Urbani: unit not given here
[2] = test system: recombinant human anti-SARS-CoV antibody 03-018; format: binding; design: Binding of antibody 03-018 to linear peptides of the N protein of SARS-CoV Urbani / Binding of antibody 03-018 to looped/cyclic peptides of the N protein of SARS-CoV Urbani: unit not given here
[3] = test system: rabbit serum obtained by immunizing a rabbit with the SARS-CoV strain Frankfurt 1; format: binding; design: Binding of a rabbit serum to linear peptides / Binding of a rabbit serum to looped peptides / Rabbit serum linear peptides / Rabbit serum looped peptides / Binding of a rabbit serum to linear peptides of protein N of SARS-CoV Urbani (Rabbit serum linear peptides) / Binding of a rabbit serum to looped/cyclic peptides of protein N of SARS-CoV Urbani (Rabbit serum looped peptides): unit not given here
[4] = test system: antibodies in sera from SARS patients (sera 1a, 1b, 2, 6, 37, 62, London, SARS-yellow, SARS-green); format: binding, human; design: Binding of serum 6 to linear peptides of protein X1 of SARS-CoV Urbani / Binding of serum 37 to linear peptides of protein X1 of SARS-CoV Urbani / Binding of serum 6 to looped/cyclic peptide (PEPSCAN-ELISA) / Binding of serum 37 to looped/cyclic peptide (PEPSCAN-ELISA) / Binding of serum 37 to looped/cyclic peptides of protein X1 of SARS-CoV Urbani / Binding of serum 6 to linear peptides of protein X2 / Binding of serum 37 to linear peptides of protein X2 / Binding of serum 37 to looped/cyclic peptides of protein X2 of SARS-CoV Urbani / Binding of serum 6 to linear peptides of protein M of SARS-CoV Urbani / Binding of serum 37 to linear peptides of protein M of SARS-CoV Urbani / Binding of serum 6 to looped/cyclic peptides of protein M of SARS-CoV Urbani / Binding of serum 37 to looped/cyclic peptides of protein M of SARS-CoV Urbani / Binding of serum 6 to linear peptides of protein X3 of SARS-CoV Urbani / Binding of serum 37 to linear peptides of protein X3 of SARS-CoV Urbani / Binding of serum 37 to looped/cyclic peptides of protein X3 of SARS-CoV Urbani / Binding of serum 6 to linear peptides of protein X4 of SARS-CoV Urbani / Binding of serum 37 to linear peptides of protein X4 of SARS-CoV Urbani / Binding of serum 37 to looped/cyclic peptides of protein X4 of SARS-CoV Urbani / Binding of serum 6 to linear peptides of protein X5 of SARS-CoV Urbani / Binding of serum 37 to linear peptides of protein X5 of SARS-CoV Urbani / Binding of serum 37 to looped/cyclic peptides of protein X5 of SARS-CoV Urbani / Binding of serum 6 to linear peptides of protein N of SARS-CoV Urbani / Binding of serum 37 to linear peptides of protein N of SARS-CoV Urbani / Binding of serum 6 to linear peptide (PEPSCAN-ELISA) / Binding of serum 1a to looped/cyclic peptides of protein N of SARS-CoV Urbani / Binding of serum 1b to looped/cyclic peptides of protein N of SARS-CoV Urbani / Binding of serum 2 to looped/cyclic peptides of protein N of SARS-CoV Urbani / Binding of serum 6 to looped/cyclic peptides of protein N of SARS-CoV Urbani / Binding of serum 37 to looped/cyclic peptides of protein N of SARS-CoV Urbani / Binding of serum 62 to looped/cyclic peptides of protein N of SARS-CoV Urbani / Binding of serum London to looped/cyclic peptides of protein N of SARS-CoV Urbani / Binding of serum SARS-green to looped/cyclic peptides of protein N of SARS-CoV Urbani: unit not given here

NTPKDHIGTRNPNNN
0.6: Binding of Control serum LUMC to looped peptides [1] | Binding of serum 37 to looped/cyclic peptides of protein N of SARS-CoV Urbani [4] | Binding of serum SARS-yellow to linear peptides of protein N of SARS-CoV Urbani [4]
0.5: Binding of Control Serum Blood-Bank to Looped peptides [1]
0.1: Binding of antibody 03-018 to linear peptides of the N protein of SARS-CoV Urbani [2] | Binding of a rabbit serum to linear peptides of protein N of SARS-CoV Urbani (Rabbit serum linear peptides) [3] | Binding of a rabbit serum to looped/cyclic peptides of protein N of SARS-CoV Urbani (Rabbit serum looped peptides) [3] | Binding of serum 1b to linear peptides of protein N of SARS-CoV Urbani [4]
0.3: Binding of serum 1a to linear peptides of protein N of SARS-CoV Urbani [4] | Binding of serum 1b to looped/cyclic peptides of protein N of SARS-CoV Urbani [4] | Binding of serum 2 to linear peptides of protein N of SARS-CoV Urbani [4] | Binding of serum 6 to looped/cyclic peptides of protein N of SARS-CoV Urbani [4] | Binding of serum 62 to looped/cyclic peptides of protein N of SARS-CoV Urbani [4]
0.4: Binding of serum 1a to looped/cyclic peptides of protein N of SARS-CoV Urbani [4] | Binding of serum 2 to looped/cyclic peptides of protein N of SARS-CoV Urbani [4] | Binding of serum London to linear peptides of protein N of SARS-CoV Urbani [4] | Binding of serum London to looped/cyclic peptides of protein N of SARS-CoV Urbani [4] | Binding of serum SARS-green to linear peptides of protein N of SARS-CoV Urbani [4] | Binding of serum SARS-green to looped/cyclic peptides of protein N of SARS-CoV Urbani [4] | Binding of serum SARS-yellow to looped/cyclic peptides of protein N of SARS-CoV Urbani [4]
0.7: Binding of Control serum LUMC to linear peptides [1] | Binding of serum 62 to linear peptides of protein N of SARS-CoV Urbani [4]
0.2: Binding of antibody 03-018 to looped/cyclic peptides of the N protein of SARS-CoV Urbani [2] | Binding of serum 6 to linear peptides of protein N of SARS-CoV Urbani [4]
0.8: Binding of Control serum Blood-bank to linear peptides [1] | Binding of serum 37 to linear peptides of protein N of SARS-CoV Urbani [4]

QDLIRQGTDYKHWPQ
0.4: Binding of serum 62 to looped/cyclic peptides of protein N of SARS-CoV Urbani [4] | Binding of serum London to linear peptides of protein N of SARS-CoV Urbani [4] | Binding of serum London to looped/cyclic peptides of protein N of SARS-CoV Urbani [4] | Binding of serum SARS-yellow to linear peptides of protein N of SARS-CoV Urbani [4]
0.7: Binding of Control serum Blood-bank to linear peptides [1]
0.5: Binding of Control serum LUMC to looped peptides [1] | Binding of serum 37 to looped/cyclic peptides of protein N of SARS-CoV Urbani [4] | Binding of serum 62 to linear peptides of protein N of SARS-CoV Urbani [4]
0.2: Binding of antibody 03-018 to looped/cyclic peptides of the N protein of SARS-CoV Urbani [2] | Binding of a rabbit serum to looped/cyclic peptides of protein N of SARS-CoV Urbani (Rabbit serum looped peptides) [3] | Binding of serum 1a to linear peptides of protein N of SARS-CoV Urbani [4] | Binding of serum 1b to looped/cyclic peptides of protein N of SARS-CoV Urbani [4] | Binding of serum 2 to linear peptides of protein N of SARS-CoV Urbani [4] | Binding of serum 6 to linear peptides of protein N of SARS-CoV Urbani [4] | Binding of serum 6 to looped/cyclic peptides of protein N of SARS-CoV Urbani [4] | Binding of serum SARS-green to linear peptides of protein N of SARS-CoV Urbani [4] | Binding of serum SARS-green to looped/cyclic peptides of protein N of SARS-CoV Urbani [4]
0.6: Binding of Control Serum Blood-Bank to Looped peptides [1] | Binding of Control serum LUMC to linear peptides [1] | Binding of serum 37 to linear peptides of protein N of SARS-CoV Urbani [4]
0.1: Binding of antibody 03-018 to linear peptides of the N protein of SARS-CoV Urbani [2] | Binding of a rabbit serum to linear peptides of protein N of SARS-CoV Urbani (Rabbit serum linear peptides) [3] | Binding of serum 1b to linear peptides of protein N of SARS-CoV Urbani [4]
0.3: Binding of serum 1a to looped/cyclic peptides of protein N of SARS-CoV Urbani [4] | Binding of serum 2 to looped/cyclic peptides of protein N of SARS-CoV Urbani [4] | Binding of serum SARS-yellow to looped/cyclic peptides of protein N of SARS-CoV Urbani [4]

RNGARPKQRRPQGLP
0.5: Binding of Control Serum Blood-Bank to Looped peptides [1] | Binding of serum 37 to looped/cyclic peptides of protein N of SARS-CoV Urbani [4] | Binding of serum London to linear peptides of protein N of SARS-CoV Urbani [4] | Binding of serum SARS-yellow to linear peptides of protein N of SARS-CoV Urbani [4]
0.3: Binding of antibody 03-018 to looped/cyclic peptides of the N protein of SARS-CoV Urbani [2] | Binding of serum 2 to looped/cyclic peptides of protein N of SARS-CoV Urbani [4] | Binding of serum SARS-green to looped/cyclic peptides of protein N of SARS-CoV Urbani [4]
0.8: Binding of Control serum Blood-bank to linear peptides [1]
0.2: Binding of a rabbit serum to looped/cyclic peptides of protein N of SARS-CoV Urbani (Rabbit serum looped peptides) [3] | Binding of serum 1a to linear peptides of protein N of SARS-CoV Urbani [4] | Binding of serum 1a to looped/cyclic peptides of protein N of SARS-CoV Urbani [4] | Binding of serum 2 to linear peptides of protein N of SARS-CoV Urbani [4] | Binding of serum 6 to linear peptides of protein N of SARS-CoV Urbani [4] | Binding of serum 6 to looped/cyclic peptides of protein N of SARS-CoV Urbani [4] | Binding of serum SARS-yellow to looped/cyclic peptides of protein N of SARS-CoV Urbani [4]
0.1: Binding of antibody 03-018 to linear peptides of the N protein of SARS-CoV Urbani [2] | Binding of a rabbit serum to linear peptides of protein N of SARS-CoV Urbani (Rabbit serum linear peptides) [3] | Binding of serum 1b to linear peptides of protein N of SARS-CoV Urbani [4] | Binding of serum 1b to looped/cyclic peptides of protein N of SARS-CoV Urbani [4]
0.6: Binding of Control serum LUMC to linear peptides [1] | Binding of Control serum LUMC to looped peptides [1] | Binding of serum 37 to linear peptides of protein N of SARS-CoV Urbani [4] | Binding of serum 62 to linear peptides of protein N of SARS-CoV Urbani [4]
0.4: Binding of serum 62 to looped/cyclic peptides of protein N of SARS-CoV Urbani [4] | Binding of serum London to looped/cyclic peptides of protein N of SARS-CoV Urbani [4] | Binding of serum SARS-green to linear peptides of protein N of SARS-CoV Urbani [4]

TWLTYHGAIKLDDKD
0.6: Control serum Blood-bank linear peptides [1] | Control serum LUMC linear peptides [1] | Binding of serum 37 to linear peptides of protein N of SARS-CoV Urbani [4] | Binding of serum 62 to linear peptides of protein N of SARS-CoV Urbani [4] | Binding of serum SARS-yellow to linear peptides of protein N of SARS-CoV Urbani [4]
0.1: Binding of antibody 03-018 to linear peptides of the N protein of SARS-CoV Urbani [2] | Binding of a rabbit serum to linear peptides of protein N of SARS-CoV Urbani (Rabbit serum linear peptides) [3] | Binding of serum 1b to linear peptides of protein N of SARS-CoV Urbani [4] | Binding of serum 2 to linear peptides of protein N of SARS-CoV Urbani [4] | Binding of serum 6 to looped/cyclic peptides of protein N of SARS-CoV Urbani [4]
0.5: Binding of serum London to linear peptides of protein N of SARS-CoV Urbani [4]
0.2: Binding of antibody 03-018 to looped/cyclic peptides of the N protein of SARS-CoV Urbani [2] | Binding of serum 1a to linear peptides of protein N of SARS-CoV Urbani [4] | Binding of serum 1a to looped/cyclic peptides of protein N of SARS-CoV Urbani [4] | Binding of serum 1b to looped/cyclic peptides of protein N of SARS-CoV Urbani [4] | Binding of serum 2 to looped/cyclic peptides of protein N of SARS-CoV Urbani [4] | Binding of serum 6 to linear peptides of protein N of SARS-CoV Urbani [4] | Binding of serum London to looped/cyclic peptides of protein N of SARS-CoV Urbani [4]
0.3: Binding of a rabbit serum to looped/cyclic peptides of protein N of SARS-CoV Urbani (Rabbit serum looped peptides) [3] | Binding of serum 62 to looped/cyclic peptides of protein N of SARS-CoV Urbani [4] | Binding of serum SARS-green to linear peptides of protein N of SARS-CoV Urbani [4] | Binding of serum SARS-green to looped/cyclic peptides of protein N of SARS-CoV Urbani [4] | Binding of serum SARS-yellow to looped/cyclic peptides of protein N of SARS-CoV Urbani [4]
0.4: Control Serum Blood-Bank Looped peptides [1] | Control serum LUMC looped peptides [1] | Binding of serum 37 to looped/cyclic peptides of protein N of SARS-CoV Urbani [4]
